Test [1] has as its target T1, human TLR7 (Homo sapiens, UniProt Q9NYK1).
T1 construct: expresses full-length human TLR7 and secretory alkaline phosphatase (SEAP) reporter gene; host or cells: TLR7/NF-κB/SEAPorter HEK293 cell line
T1 sequence (Q9NYK1 27-1049): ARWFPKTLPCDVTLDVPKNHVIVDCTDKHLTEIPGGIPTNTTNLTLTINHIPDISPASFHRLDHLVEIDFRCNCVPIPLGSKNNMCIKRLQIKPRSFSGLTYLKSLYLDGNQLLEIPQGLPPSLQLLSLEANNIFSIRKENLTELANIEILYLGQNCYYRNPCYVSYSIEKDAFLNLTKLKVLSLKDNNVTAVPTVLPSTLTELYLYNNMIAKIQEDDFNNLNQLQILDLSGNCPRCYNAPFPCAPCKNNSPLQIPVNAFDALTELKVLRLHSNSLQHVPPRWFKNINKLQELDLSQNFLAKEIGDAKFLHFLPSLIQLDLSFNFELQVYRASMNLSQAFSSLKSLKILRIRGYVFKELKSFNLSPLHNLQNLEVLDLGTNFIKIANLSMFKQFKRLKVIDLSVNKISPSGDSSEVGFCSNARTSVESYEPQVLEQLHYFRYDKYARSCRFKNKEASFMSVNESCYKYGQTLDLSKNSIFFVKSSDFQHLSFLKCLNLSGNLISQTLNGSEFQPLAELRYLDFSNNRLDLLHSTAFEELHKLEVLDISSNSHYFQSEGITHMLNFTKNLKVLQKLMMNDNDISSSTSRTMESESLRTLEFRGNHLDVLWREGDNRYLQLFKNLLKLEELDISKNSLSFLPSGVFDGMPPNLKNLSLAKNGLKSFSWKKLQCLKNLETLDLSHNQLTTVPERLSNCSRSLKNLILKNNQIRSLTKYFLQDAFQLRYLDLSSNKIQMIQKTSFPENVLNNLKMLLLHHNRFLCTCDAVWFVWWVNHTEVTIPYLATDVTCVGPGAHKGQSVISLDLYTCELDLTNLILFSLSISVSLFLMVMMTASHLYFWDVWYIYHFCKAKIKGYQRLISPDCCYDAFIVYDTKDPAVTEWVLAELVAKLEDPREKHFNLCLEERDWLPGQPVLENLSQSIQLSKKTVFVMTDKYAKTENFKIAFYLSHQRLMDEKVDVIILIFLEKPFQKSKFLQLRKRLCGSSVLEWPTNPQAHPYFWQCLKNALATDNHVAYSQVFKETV
The experiment in a line: Human TLR7 reporter gene assay (Test 1). It counts as cell-based. Conditions: half-maximal SEAP induction, TLR7/NF-κB/SEAPorter HEK293 cell line, overnight 37° C., 0.1% DMSO. From the text:
TLR7/NF-κB/SEAPorter™ HEK293 cell line (Imgenex Corporation) is a stably co-transfected cell line which expresses full-length human TLR7 and secretory alkaline phosphatase (SEAP) reporter gene under the transcriptional regulation of an NF-κB response element. The TLR7 expression of the cell line has been already tested by flow cytometry. Transfectants with stable expression were selected using the antibiotic blasticidin and Geneticin. TLR signaling leads to the translocation of NF-κB and the activation of the promoter results in expression of the SEAP gene. TLR7-specific activation was assessed by determining the level of SEAP produced following overnight incubation of the cells at 37° C. with each compound prepared in Examples and Reference examples in the presence of 0.1% (v/v) dimethylsulfoxide (DMSO). The human TLR7 activity for the present compound was assessed by human TLR7 reporter gene assay, and the results are shown in Tables 6 and 7 as the compound concentration which produced half of the maximal level of SEAP induction (EC50).

Test [2] addresses T2, mouse TLR7 (Mus musculus, UniProt P58681).
T2 construct: expresses full-length mouse TLR7 and secretory SEAP reporter gene; host or cells: HEK-Blue mTLR7 cell line
T2 sequence (P58681 27-1050): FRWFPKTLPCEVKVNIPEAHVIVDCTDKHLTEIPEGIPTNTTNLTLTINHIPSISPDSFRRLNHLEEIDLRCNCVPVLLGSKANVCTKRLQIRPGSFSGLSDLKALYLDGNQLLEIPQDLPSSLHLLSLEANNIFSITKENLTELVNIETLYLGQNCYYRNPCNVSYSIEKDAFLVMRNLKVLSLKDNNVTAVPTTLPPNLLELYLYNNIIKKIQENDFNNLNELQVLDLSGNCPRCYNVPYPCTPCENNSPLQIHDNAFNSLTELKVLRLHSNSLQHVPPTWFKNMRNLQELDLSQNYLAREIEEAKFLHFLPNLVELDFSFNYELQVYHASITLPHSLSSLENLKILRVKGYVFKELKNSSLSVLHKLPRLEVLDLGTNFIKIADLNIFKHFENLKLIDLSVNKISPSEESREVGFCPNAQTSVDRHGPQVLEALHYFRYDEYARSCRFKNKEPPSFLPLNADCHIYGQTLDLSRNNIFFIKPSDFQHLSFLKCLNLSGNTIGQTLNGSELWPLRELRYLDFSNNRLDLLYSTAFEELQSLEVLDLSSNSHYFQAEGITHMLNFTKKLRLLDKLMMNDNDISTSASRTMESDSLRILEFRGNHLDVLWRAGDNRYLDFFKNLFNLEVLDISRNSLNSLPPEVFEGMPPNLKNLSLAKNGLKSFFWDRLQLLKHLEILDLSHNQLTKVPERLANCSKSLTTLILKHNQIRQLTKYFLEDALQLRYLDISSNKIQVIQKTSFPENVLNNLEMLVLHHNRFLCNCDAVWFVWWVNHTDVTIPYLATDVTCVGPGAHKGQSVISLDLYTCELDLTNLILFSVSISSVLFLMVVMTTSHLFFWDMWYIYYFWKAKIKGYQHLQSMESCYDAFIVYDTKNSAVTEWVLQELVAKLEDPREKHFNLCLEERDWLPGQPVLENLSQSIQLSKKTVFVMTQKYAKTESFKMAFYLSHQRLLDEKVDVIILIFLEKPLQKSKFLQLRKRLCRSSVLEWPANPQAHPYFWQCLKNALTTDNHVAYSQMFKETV
The experiment in a line: Mouse TLR7 reporter gene assay (Test 2). It is filed as cell-based. Conditions: half-maximal SEAP induction, HEK-Blue mTLR7 cell line, overnight 37° C., 0.1% DMSO. From the text:
HEK-Blue™ mTLR7 cell line (Invivogen) is a stably co-transfected cell line which expresses full-length mouse TLR7 and secretory SEAP reporter gene under the transcriptional regulation of an NF-κB response element. The TLR7 expression of the cell line has been already tested by RT-PCR. Transfectants with stable expression were selected using the antibiotic blasticidin and Zeocin. TLR signaling leads to the translocation of NF-κB and the activation of the promoter results in expression of the SEAP gene. TLR7-specific activation was assessed by determining the level of SEAP produced following overnight incubation of the cells at 37° C. with each compound prepared in Examples and Reference examples in the presence of 0.1% (v/v) DMSO. The mouse TLR7 activity for the present compound was assessed by mouse TLR7 reporter gene assay, and the results are shown in Tables 8 and 9 as the compound concentration which produced half of the maximal level of SEAP induction (EC50).

In test [3] the test system is HLA-A*02:01 transgenic mouse. The experiment in a line: In vivo adjuvant activity, CTL induction with vaccine b, IFNγ ELISPOT (Test 18). Conditions: 0.04 nmol per body added to vaccine b versus no compound; twice. On the procedure: The in vivo adjuvant activity of the compound of Example 6 was evaluated in the following procedure. To vaccine b like Test 17 was added the compound prepared in Example 6 to prepare a vaccine. The vaccine was administered to a HLA-A*02:01 transgenic mouse, and the adjuvant activity of the vaccine was evaluated by the method of testing antigen-specific CTL induction.
Specifically, Compound of formula 4 and Peptide SEQ ID No. 3 were dissolved in DMSO, and then diluted with water for injection to concentrations of Compound of formula 4 of 3 mg/mL and Peptide SEQ ID No. 3 of 2.25 mg/mL. The diluted peptide solution was mixed and emulsified with an equal volume of Montanide ISA 51 VG to prepare vaccine b. Vaccine b was injected to mice intradermally at the tail base area in an amount for administering 300 μg of Compound of formula 4 per body and 225 μg of Peptide SEQ ID No. 3 per body. Or, in the step of preparing vaccine b, the compound prepared in Example 6 was added to the diluted peptide solution to prepare a vaccine, and the prepared vaccine was injected to mice intradermally at the tail base area in an amount for administering 300 μg of Compound of formula 4 per body, 225 μg of Peptide SEQ ID No. 3 per body, and 0.04 nmol of the compound prepared in Example 6 per body. […] Then, after removal of the supernatant from the wells, stained spots on the ELISPOT plate were counted.

The subject of test [4] is HLA-A*02:01 transgenic mouse. Description: In vivo adjuvant activity, CTL induction with vaccine b, IFNγ ELISPOT (Test 17). Particulars: 0.04 nmol or 0.4 nmol per body added to vaccine b versus no compound; twice. On the procedure:
The in vivo adjuvant activity of the compounds prepared in Examples 7, 8, and 9 was evaluated in the following procedure. To vaccine b comprising Compound of formula 4 prepared in Reference example 9 and Peptide SEQ ID No. 3 prepared in Reference example 3 with Montanide ISA51 VG was added the compound prepared in Example 7, 8, or 9 to prepare each vaccine. The vaccine was administered to a HLA-A*02:01 transgenic mouse, and the adjuvant activity of each vaccine was evaluated by the method of testing antigen-specific CTL induction.
Specifically, Compound of formula 4 and Peptide SEQ ID No. 3 were dissolved in DMSO, and then diluted with water for injection to concentrations of Compound of formula 4 of 3 mg/mL and Peptide SEQ ID No. 3 of 2.25 mg/mL. The diluted peptide solution was mixed and emulsified with an equal volume of Montanide ISA 51 VG to prepare vaccine b. Vaccine b was injected to mice intradermally at the tail base area in an amount for administering 300 μg of Compound of formula 4 per body and 225 μg of Peptide SEQ ID No. 3 per body. […] Then, after removal of the supernatant from the wells, stained spots on the ELISPOT plate were counted.

For `CCCCOc1nc(N)c2[nH]c(=O)n(Cc3ccc(CN(C)CCOCCOCCOCCOCCO)cn3)c2n1` [Example 1, 6-amino-2-butoxy-9-{[5-(16-hydroxy-2-methyl-5,8,11,14-tetraoxa-2-azahexadecan-1-yl)pyridin-2-yl]methyl}-7,9-dihydro-8H-purin-8-one.trifluoroacetate], the EC50 in test [1] (Table 6, Examples) is 0.15 µM; in test [2] (Table 8, Examples) it was 1.45 µM.

The molecule `COCCOc1nc(N)c2[nH]c(=O)n(Cc3ccc(CN(C)CCOCCOCCOCCOCCO)cc3)c2n1` [Example 4, 6-amino-9-{[4-(16-hydroxy-2-methyl-5,8,11,14-tetraoxa-2-azahexadecan-1-yl)phenyl]methyl}-2-(2-methoxyethoxy)-7,9-dihydro-8H-purin-8-one] registered an EC50 in test [1] (Table 6, Examples) of 5.3 µM.

With `CCCCOc1nc(N)c2[nH]c(=O)n(Cc3ccc(CN(CCOCCOCCOCCO)CCOCCOCCOCCO)nc3)c2n1` [Example 6, 6-Amino-2-butoxy-9-({6-[13-hydroxy-2-(2-{2-[2-(2-hydroxyethoxy)ethoxy]ethoxy}ethyl)-5,8,11-trioxa-2-azatridecan-1-yl]pyridin-3-yl}methyl)-7,9-dihydro-8H-purin-8-one], the “CTL counts responsive to Peptide SEQ ID No. 5” value in test [3] was “more”. As to `CCCCOc1nc(N)c2[nH]c(=O)n(Cc3ccc(CN(C)CCOCCOCCOCCOCCOCCOCCOCCOCCOCCO)nc3)c2n1` [Example 7, 6-Amino-2-butoxy-9-{[6-(31-hydroxy-2-methyl-5,8,11,14,17,20,23,26,29-nonaoxa-2-azahentriacontan-1-yl)pyridin-3-yl]methyl}-7,9-dihydro-8H-purin-8-one], the “CTL counts responsive to Peptide SEQ ID No. 5” value in test [4] is “more”. Take `CCCCOc1nc(N)c2[nH]c(=O)n(Cc3ccc(CN(C)CCOCCOCCOCCOCCOCCOCCOCCOCCOCCOCCOCCOCCOCCOCCOCCOCCOCCOCCOCCOCCOCCOCCOCCO)nc3)c2n1` [Example 8, 6-Amino-2-butoxy-9-{[6-(73-hydroxy-2-methyl-5,8,11,14,17,20,23,26,29,32,35,38,41,44,47,50,53,56,59,62,65,68,71-tricosaoxa-2-azatriheptacontan-1-yl)pyridin-3-yl]methyl}-7,9-dihydro-8H-purin-8-one]: the “CTL counts responsive to Peptide SEQ ID No. 5” value in test [4] was “more”. Take `CCCCOc1nc(N)c2[nH]c(=O)n(Cc3ccc(CNC)cn3)c2n1` [compound 13, reference compound]: the EC50 in test [1] (Table 7, Reference examples) is 0.082 µM; in test [2] (Table 9, Reference examples), 0.279 µM.

The values are drawn from patent publication US20220241409A1, “WATER SOLUBLE ADJUVANT AND COMPOSITION CONTAINING SAME” (Sumitomo Dainippon Pharma Co., Ltd., priority 2019, published 2022).
